From patent US20050069887A1, “Dna synthesis promoters dna polymerase-associated factors and utilization thereof” (priority 2001, published 2005)
“And” between values parts separate entries of the source, which are not always exact repeats. Equal entries are not always repeated.

Target: KOD DNA polymerase (Thermococcus kodakarensis, UniProt P77933, DEL407-766/DEL853-1389)
Assay: Long PCR using KOD DNA polymerase (Examples 2-5 to 2-8)
Format: biochemical, Thermococcus kodakaraensis KOD1
Protocol: Oxalate ion and betaine were investigated for their synergistic effectiveness in long PCR amplification of a target DNA of more than 20 kb derived from the human genome using KOD DNA polymerase, successful amplification of which using α-type enzyme alone has not been reported. Potassium oxalate was added to the PCR buffer supplied with KOD-plus (TOYOBO CO.,LTD.) to attain a final concentration of 2 mM. Also used were 0.4 mM dNTPs, 0.3 μM of a pair of primers of SEQ ID Nos:20 and 21, and 2.0 U KOD DNA polymerase. 200 ng of genomic DNA derived from human cell line K562 was used as a template. This reaction mixture was subjected to PCR by using GeneAmp2400 (PE Applied Biosystems) to investigate the influence on the PCR results of varying the concentration of betaine. The PCR conditions were as follows: 1 preliminary reaction of 94° C. for 2 minutes; 5 cycles of 98° C. for 10 seconds and 74° C. for 18 minutes; 5 cycles of 98° C. for 10 seconds and 72° C. for 18 minutes; 5 cycles of 98° C. for 10 seconds and 70° C. for 18 minutes; 25 cycles of 98° C. for 10 second and 68° C. for 18 minutes; and 1 additional reaction of 68° C. for 7 minutes.
Oxalate ion and betaine were investigated for their synergistic effectiveness in long PCR amplification of a target DNA of more than 20 kb derived from the human genome using KOD DNA polymerase, successful amplification of which using α-type enzyme alone has not been reported. Betaine was added to the PCR buffer supplied with KOD-plus (TOYOBO CO., LTD.) to attain a final concentration of 1.5 M. Also used were 2.0 U KOD DNA polymerase, 0.4 mM dNTPs and 0.3 μM of a pair of primers of SEQ ID Nos:22 and 23 respectively for the PCR amplification of 22 kb DNA in tPA gene, and SEQ ID Nos:22 and 24 respectively for the PCR amplification of tPA 24 kb DNA. 200 ng of genomic DNA derived from human cell line K562 was used as a template. This reaction mixture was subjected to PCR by using GeneAmp2400 (PE Applied Biosystems) to investigate the influence on the PCR results of varying the concentration of potassium oxalate. The PCR conditions were as follows: 1 preliminary reaction of 94° C. for 2 minutes; 5 cycles of 98° C. for 10 seconds and 74° C. for 18 minutes; 5 cycles of 98° C. for 10 seconds and 72° C. for 18 minutes; 5 cycles of 98° C. for 10 seconds and 70° C. for 18 minutes; 25 cycles of 98° C. for 10 seconds and 68° C. of 18 minutes; and 1 additional reaction of 68° C. for 7 minutes.
Under the aforementioned conditions in which oxalate ions and betaine are present, the effect of hot start PCR using antibodies in long PCR using KOD DNA polymerase was investigated. Potassium oxalate and betaine were added to the PCR buffer supplied with KOD-plus (TOYOBO CO.LTD.) to attain a final oxalate concentration of 2 mM and a final betaine concentration of 1.5 M. Also used were 2.0 U KOD DNA polymerase, 0.4 mM dNTPs and 0.3 μM of a pair of primers of SEQ ID Nos:22 and 25 for PCR amplification of tPA 12 kb DNA; SEQ ID Nos:22 and 26 for PCR amplification of tPA 15 kb DNA; SEQ ID Nos:22 and 27 for PCR amplification of tPA 18 kb DNA; SEQ ID Nos:22 and 23 for PCR amplification of tPA 22 kb DNA; SEQ ID Nos:22 and 24 for PCR amplification of tPA 24 kb DNA; and SEQ ID Nos:28 and 29 for PCR amplification of β-globin 17.5 kb DNA. 200 ng of genomic DNA derived from human cell line K562 was used as a template. […]

[1] = 2 mM potassium oxalate, target of more than 20 kb, FIG. 15

Chain of KOD DNA polymerase (P77933 other isoform, or with tags, fused parts or gaps DEL407-766/DEL853-1389): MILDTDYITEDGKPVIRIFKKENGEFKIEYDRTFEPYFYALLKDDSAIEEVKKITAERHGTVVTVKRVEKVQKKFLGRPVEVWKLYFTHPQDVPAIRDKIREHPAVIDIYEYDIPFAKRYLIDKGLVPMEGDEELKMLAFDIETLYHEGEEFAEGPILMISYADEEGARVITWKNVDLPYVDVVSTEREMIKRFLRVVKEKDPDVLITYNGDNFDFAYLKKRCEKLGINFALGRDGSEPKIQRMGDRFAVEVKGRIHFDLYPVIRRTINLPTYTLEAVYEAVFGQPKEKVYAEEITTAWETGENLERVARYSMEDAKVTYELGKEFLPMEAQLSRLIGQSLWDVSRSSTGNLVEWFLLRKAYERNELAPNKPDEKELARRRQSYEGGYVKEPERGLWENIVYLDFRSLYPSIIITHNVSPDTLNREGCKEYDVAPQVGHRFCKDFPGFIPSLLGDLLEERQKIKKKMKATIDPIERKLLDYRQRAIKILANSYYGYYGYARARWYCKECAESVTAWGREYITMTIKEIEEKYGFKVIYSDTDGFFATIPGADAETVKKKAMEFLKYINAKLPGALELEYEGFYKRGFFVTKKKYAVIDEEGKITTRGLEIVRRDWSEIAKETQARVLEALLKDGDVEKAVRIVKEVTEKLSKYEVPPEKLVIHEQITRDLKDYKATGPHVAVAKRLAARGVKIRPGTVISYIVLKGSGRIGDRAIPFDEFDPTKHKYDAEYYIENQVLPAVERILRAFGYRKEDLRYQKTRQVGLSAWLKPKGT

Structure (SMILES)	betaine concentration at which sufficient amplification of both target DNAs was observed (2 mM potassium oxalate, tPA 9 kb and 12 kb, FIG. 18)	betaine concentration at which amplification of the target DNA was not observed [1] [M]	betaine concentration at which sufficient amplification was found [1]	potassium oxalate concentration at which amplification was confirmed (1.5 M betaine, tPA 22 kb DNA, FIG. 16) [mM]	potassium oxalate concentration at which slight amplification was observed (1.5 M betaine, tPA 24 kb DNA, FIG. 16)
C[N+](C)(C)CC(=O)[O-] [betaine, trimethylglycine]	1 M and 1.5 M	≤ 1.2	1.4 M and 1.6 M		
O=C([O-])C(=O)[O-].[K+].[K+] [potassium oxalate]				2	1.5 mM and 2.0 mM
